Results as given in patent US7723384B2, “Keto lactam compounds and use thereof” (Abbott GmbH & Co. KG., priority 2003, dated 2010).
Structures can show the parent of a compound that is named as a salt.

Key:
[1] = target: T1, human dopamine D3 receptors (Homo sapiens, UniProt P35462); assay: Dopamine D3 receptor binding, displacement of [125I]-iodosulpride; details: membranes from HEK-293 cells with stably expressed human D3 receptors, 0.1 nM [125I]-iodosulpride
T1 construct: expressed in transfected cells; membranes)
T1 sequence (P35462 whole entry): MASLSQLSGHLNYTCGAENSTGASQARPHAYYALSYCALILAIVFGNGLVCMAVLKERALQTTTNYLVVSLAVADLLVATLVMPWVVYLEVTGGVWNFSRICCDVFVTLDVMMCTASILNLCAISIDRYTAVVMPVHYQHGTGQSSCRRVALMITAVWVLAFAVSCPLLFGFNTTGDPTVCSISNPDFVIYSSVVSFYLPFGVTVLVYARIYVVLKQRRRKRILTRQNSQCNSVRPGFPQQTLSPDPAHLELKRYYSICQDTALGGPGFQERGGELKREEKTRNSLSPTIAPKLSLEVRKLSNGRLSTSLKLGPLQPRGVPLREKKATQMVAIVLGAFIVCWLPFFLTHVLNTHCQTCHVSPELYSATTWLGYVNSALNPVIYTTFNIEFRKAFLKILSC
Protocol: (§1) The substance to be tested was dissolved either in methanol/Chremophor® (BASF-AG) or in dimethyl sulfoxide and then diluted with water to the desired concentration.
(§2) Triplicate mixtures were carried out.
The incubation buffer comprised 50 mM Tris, 120 mM NaCl, 5 mM KCl, 2 mM CaCl2, 2 mM MgCl2 and 0.1% bovine serum albumin, 10 μM quinolone, 0.1% ascorbic acid (prepared fresh each day). The buffer was adjusted to pH 7.4 with HCl.
(§3) III. Measurement and Evaluation:
(§4) After incubation at 25° C. for 60 minutes, the mixtures were filtered under vacuum through Whatman GF/B glass fiber filters using a cell harvester. The filters were transferred by a filter transfer system into scintillation vials. After addition of 4 ml of Ultima Gold® (Packard), the samples were shaken for one hour and then the radioactivity was counted in a beta counter (Packard, Tricarb 2000 or 2200CA). The cp values were converted into dpm by means of a standard quench series with the aid of the instrument's own program.
(§5) Evaluation of the inhibition plots took place by iterative nonlinear regression analysis using the Statistical Analysis System (SAS) similar to the “LIGAND” program described by Munson and Rodbard.

[2] = target: T2, human dopamine D2L receptors (long isoform) (Homo sapiens, UniProt P14416); assay: Dopamine D2L receptor binding, displacement of [125I]-iodospiperone; details: ratio Ki(D2L)/Ki(D3); HEK-293 membranes with human D2L and D3 receptors
T2 construct: expressed in transfected cells; membranes)
T2 sequence (P14416 whole entry, canonical isoform): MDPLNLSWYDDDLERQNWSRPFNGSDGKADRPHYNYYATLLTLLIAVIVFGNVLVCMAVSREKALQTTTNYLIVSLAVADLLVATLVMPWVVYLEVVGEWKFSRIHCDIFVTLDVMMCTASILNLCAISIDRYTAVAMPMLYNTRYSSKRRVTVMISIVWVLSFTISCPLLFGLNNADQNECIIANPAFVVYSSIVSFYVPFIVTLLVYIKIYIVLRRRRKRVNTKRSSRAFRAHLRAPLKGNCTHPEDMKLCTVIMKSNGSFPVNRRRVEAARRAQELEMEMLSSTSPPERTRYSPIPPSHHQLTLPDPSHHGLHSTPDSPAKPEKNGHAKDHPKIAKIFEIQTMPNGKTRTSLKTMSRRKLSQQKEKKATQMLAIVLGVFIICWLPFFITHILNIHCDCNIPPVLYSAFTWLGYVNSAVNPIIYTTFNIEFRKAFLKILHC
Protocol: as §1
II. Dopamine D2L Receptor:
as §2
The incubation buffer comprised 50 mM Tris, 120 mM NaCl, 5 mM KCl, 2 mM CaCl2, 2 mM MgCl2 and 0.1% bovine serum albumin. The buffer was adjusted to pH 7.4 with HCl.
as §3, §4, §5

SMILES	Ki [1]	Selectivity vs. D2L (Ki(D2L)/Ki(D3)) [2]
CC(C)(C)c1nc(N2CCN(C/C=C/CN3C(=O)CCC(=O)c4ccccc43)CC2)cc(C(F)(F)F)n1 [Example 4, 1-((2E)-4-{4-[2-tert-Butyl-6-(trifluoromethyl)pyrimidin-4-yl]piperazin-1-yl}but-2-enyl)-3,4-dihydro-1H-1-benzazepine-2,5-dione]	1.74 nM	155
COc1cc2c(cc1OC)N(CCCCN1CCN(c3cc(C(F)(F)F)nc(C(C)(C)C)n3)CC1)C(=O)CCC2=O [Example 6, 1-(4-{4-[2-tert-Butyl-6-(trifluoromethyl)pyrimidin-4-yl]piperazin-1-yl}butyl)-7,8-dimethoxy-3,4-dihydro-1H-1-benzazepine-2,5-dione]	4.5 nM	104
CCCc1cc(N2CCN(CCCCN3C(=O)CCC(=O)c4ccccc43)CC2)nc(C(C)(C)C)n1.Cl [Example 7, 1-{4-[4-(2-tert-Butyl-6-propylpyrimidin-4-yl)piperazin-1-yl]butyl}-3,4-dihydro-1H-1-benzazepine-2,5-dione hydrochloride]	1.33 nM	118
CC(C)(C)c1cc(N2CCN(CCCCN3C(=O)CCC(=O)c4ccccc43)CC2)nc(C(C)(C)C)n1.Cl [Example 10, 1-{4-[4-(2,6-Di-tert-butylpyrimidin-4-yl)piperazin-1-yl]butyl}-3,4-dihydro-1H-1-benzazepine-2,5-dione hydrochloride]	1.24 nM	74
CC(C)(C)c1nc(C2CC2)cc(N2CCN(CCCCN3C(=O)CCC(=O)c4ccccc43)CC2)n1 [Example 16, 1-{4-[4-(2-tert-Butyl-6-cyclopropylpyrimidin-4-yl)piperazin-1-yl]butyl}-3,4-dihydro-1H-benzo[b]azepine-2,5-dione]	0.96 nM	62
O=C1CCC(=O)N(CCCCN2CCN(c3cc(Cl)cc(Cl)c3)CC2)c2ccccc21 [Example 86, 1-{4-[4-(3,5-Dichlorophenyl)-2,5-piperazin-1-yl]butyl}-3,4-dihydro-1H-benzo[b]azepine-2,5-dione fumarate]	2 nM	56
O=C(O)/C=C/C(=O)O.O=C1CCC(=O)N(CCCCN2CCN(c3cc(C(F)(F)F)cc(C(F)(F)F)c3)CC2)c2ccccc21 [Example 87, 1-{4-[4-(3,5-Bis(trifluoromethyl)phenyl)piperazin-1-yl]butyl}-3,4-dihydro-1H-benzo[b]azepine-2,5-dione fumarate]	7.4 nM	129
